Measured values from patent US8455466B2, “Vitamin d analogues, compositions comprising said analogues and their use” (Leo Pharma A/S, priority 2002, dated 2013).

Experiments:
rats = experiment: In vivo calcemic activity in rats (Binderup et al.); parameters: species or system rat; details: Calcitriol = 100%
[1] = test system: bovine parathyroidea cells; experiment: In vitro PTH secretion in bovine parathyroidea cells; assay type: cell-based; details: cells treated with vitamin D analogues for 60 hours at 37° C.
Experimental: The calcemic activities of the compounds of the present invention were determined in rats in vivo, as previously described (Binderup, L., Bramm, E., Biochem. Pharmacol. 37, 889-895 (1988)). The PTH suppressive effect of the compounds of the present invention was tested in vitro on bovine parathyroidea cells: Fresh bovine parathyroid glands were collected from adult cattle within 20 min of slaughter. From minced parathyroid tissue dispersed parathyroid cells were prepared as previously described (E. M. Brown, S. Hurwitz and G. D Aurbach; Preparation of viable isolated bovine parathyroid cells; Endocrinology, 1976, vol 99, no 6, 1582-1588). Then, the cells were treated with vitamin D analogues for 60 hours at 37° C. and the PTH secretion was determined.

secretion of PTH = details: patients; 1α(OH)D3 versus 1,25(OH)2 D3 administered; cited from earlier work

Row | Compound | In vivo calcemic activity relative to Calcitriol (1,25(OH)2D3) (rats) | In vitro PTH secretion relative to untreated bovine parathyroidea cells (untreated cells as control = 100%) [1] [%] | suppression of the secretion of PTH, compared with 1,25(OH)2 D3 dosing (secretion of PTH)
1 | 1(S),3(R)-Dihydroxy-9,10-seco-26,27-methano-cholesta-5(Z),7(E),10(19),22(E),24-penta-ene [Compound 6] | 1% | 56 | –
2 | C=C1/C(=C\C=C2/CCC[C@]3(C)[C@@H]([C@H](C)CCCC(C)C)CC[C@@H]23)C[C@@H](O)C[C@@H]1O [1α(OH)D3] | – | – | no significant difference
3 | C=C1/C(=C\C=C2/CCC[C@]3(C)[C@@H]([C@H](C)CCCC(C)(C)O)CC[C@@H]23)C[C@@H](O)C[C@@H]1O [Calcitriol, 1,25(OH)2D3, reference compound] | 100% | 60 | –
4 | C=C1C(=CC=C2CCCC3(C)C2CCC3C(C)C=CC=C(C)C)CC(O)CC1O [Compound 1, 1(S),3(R)-Dihydroxy-9,10-secocholesta-5(Z),7(E),10(19),22(E),24-penta-ene] | <10% ^ | 57 | –
5 | C=C1C(=CC=C2CCCC3(C)C2CCC3C(C)C=CC=C(C)C)CC(O)CC1O [Compound 3, 1(S),3(R)-Dihydroxy-9,10-seco-20(S)-cholesta-5(Z),7(E),10(19), 22(E),24-penta-ene] | 1% | 61 | –
6 | C=C1C(=CC=C2CCCC3(C)C2CCC3C(C)C=CC=C(C(F)(F)F)C(F)(F)F)CC(O)CC1O [Compound 25, 1(S),3(R)-Dihydroxy-26,26,26,27,27,27-hexafluoro-9,10-secocholesta-5(Z),7(E),10(19),22(E),24-penta-ene] | 8% | 74 | –

Now from value to compound, other results behind:

Row | In vivo calcemic activity relative to Calcitriol (1,25(OH)2D3) (rats) | Compound | In vitro PTH secretion relative to untreated bovine parathyroidea cells (untreated cells as control = 100%) [1] [%] | suppression of the secretion of PTH, compared with 1,25(OH)2 D3 dosing (secretion of PTH)
7 | <0.5% ^ | 1(S),3(R)-Dihydroxy-9,10-seco-26,27-methano-20(S)-cholesta-5(Z),7(E),10(19),22(E),24-penta-ene [Compound 7] | 65 | –
8 | <0.5% ^ | C=C1C(=CC=C2CCCC3(C)C2CCC3C(C)C=CC=C(Br)Br)CC(O)CC1O [Compound 27, 1(S),3(R)-Dihydroxy-20(R)-(4,4-dibromo-1,3-butadien-1-yl)-9,10-seco-pregna-5(Z),7(E),10(19)-triene] | 65 | –
9 | 1% | C=C1/C(=C\C=C2/CCC[C@]3(C)[C@@H]([C@H](C)/C=C/C=C(CC)CC)CC[C@@H]23)C[C@@H](O)C[C@@H]1O [Compound 28, 1(S),3(R)-Dihydroxy-26,27-dimethyl-9,10-secocholesta-5(Z),7(E),10(19),22(E),24-penta-ene] | 62 | –
